In assay [1] the target is T1, Recombinant JAK1 (Homo sapiens, UniProt P23458).
T1 construct: purchased Carna Biosciences
Nature of the assay: JAK biochemical assay (LANCE Ultra TR-FRET), JAK1. The settings on record: recombinant JAK1, TR-FRET; read-out: Biochemical Assay (μM) JAK1. As for the experimental part:
(§1) Recombinant JAK1, JAK2, JAK3 and TYK2 (Carna Biosciences) were used to develop biochemical assays in 50 mM HEPES pH 7.5, 1 mM EGTA, 10 mM MgCl2, 2 mM DTT and 0.01% Tween-20. […] The intensity of the light emission is proportional to the level of ULight substrate phosphorylation. Compounds which interfere with JAK enzyme activity show a lesser substrate phosphorylation and values are projected in terms of % inhibition in comparison to vehicle control.
In general terms: In TR-FRET formats the signal depends on donor and acceptor labels being close together.

Assay [2] concerns the target T2, Recombinant JAK2 (Homo sapiens, UniProt O60674).
T2 construct: purchased Carna Biosciences
Nature of the assay: JAK biochemical assay (LANCE Ultra TR-FRET), JAK2. The settings on record: recombinant JAK2, TR-FRET; read-out: Biochemical Assay (μM) JAK2. As for the experimental part: as §1

Assay [3] concerns the target T3, Recombinant JAK3 (Homo sapiens, UniProt P52333).
T3 construct: purchased Carna Biosciences
T3 sequence (P52333 1-1124): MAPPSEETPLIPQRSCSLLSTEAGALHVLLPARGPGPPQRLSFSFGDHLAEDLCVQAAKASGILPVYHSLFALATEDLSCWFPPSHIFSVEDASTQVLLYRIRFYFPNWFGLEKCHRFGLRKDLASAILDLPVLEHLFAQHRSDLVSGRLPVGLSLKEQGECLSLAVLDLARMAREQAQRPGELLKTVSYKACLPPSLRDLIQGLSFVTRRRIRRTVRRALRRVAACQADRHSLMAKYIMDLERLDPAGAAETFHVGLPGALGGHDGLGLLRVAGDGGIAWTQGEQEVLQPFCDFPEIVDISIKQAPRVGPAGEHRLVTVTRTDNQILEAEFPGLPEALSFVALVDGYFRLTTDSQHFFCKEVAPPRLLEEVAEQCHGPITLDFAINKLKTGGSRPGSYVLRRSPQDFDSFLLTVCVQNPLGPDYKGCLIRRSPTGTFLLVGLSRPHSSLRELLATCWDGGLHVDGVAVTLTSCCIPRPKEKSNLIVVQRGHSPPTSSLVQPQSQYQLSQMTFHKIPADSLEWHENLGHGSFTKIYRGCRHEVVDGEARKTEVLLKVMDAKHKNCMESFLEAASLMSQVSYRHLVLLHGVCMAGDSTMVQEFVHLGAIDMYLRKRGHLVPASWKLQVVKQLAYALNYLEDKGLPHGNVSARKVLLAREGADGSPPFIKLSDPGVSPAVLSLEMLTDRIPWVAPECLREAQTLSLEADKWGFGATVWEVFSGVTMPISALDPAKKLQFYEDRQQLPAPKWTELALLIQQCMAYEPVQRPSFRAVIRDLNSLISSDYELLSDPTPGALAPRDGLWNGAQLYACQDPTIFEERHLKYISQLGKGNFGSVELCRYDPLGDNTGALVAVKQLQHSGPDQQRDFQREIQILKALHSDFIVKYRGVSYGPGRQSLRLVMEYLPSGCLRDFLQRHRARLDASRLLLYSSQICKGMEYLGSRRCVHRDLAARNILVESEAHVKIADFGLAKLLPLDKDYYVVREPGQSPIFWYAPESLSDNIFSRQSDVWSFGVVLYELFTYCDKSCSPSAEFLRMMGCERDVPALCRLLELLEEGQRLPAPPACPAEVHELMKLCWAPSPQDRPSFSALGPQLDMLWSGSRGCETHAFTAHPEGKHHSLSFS
The assay can be described thus: JAK biochemical assay (LANCE Ultra TR-FRET), JAK3. The settings on record: recombinant JAK3, TR-FRET; read-out: Biochemical Assay (μM) JAK3. The method, then:
as §1

Assay [4] deals with T4, Recombinant TYK2 (Homo sapiens, UniProt P29597).
T4 construct: purchased Carna Biosciences
The assay can be described thus: JAK biochemical assay (LANCE Ultra TR-FRET), TYK2. The settings on record: recombinant TYK2, TR-FRET; read-out: Biochemical Assay (μM) TYK2. The method, then:
as §1

T2 sequence (O60674 whole entry): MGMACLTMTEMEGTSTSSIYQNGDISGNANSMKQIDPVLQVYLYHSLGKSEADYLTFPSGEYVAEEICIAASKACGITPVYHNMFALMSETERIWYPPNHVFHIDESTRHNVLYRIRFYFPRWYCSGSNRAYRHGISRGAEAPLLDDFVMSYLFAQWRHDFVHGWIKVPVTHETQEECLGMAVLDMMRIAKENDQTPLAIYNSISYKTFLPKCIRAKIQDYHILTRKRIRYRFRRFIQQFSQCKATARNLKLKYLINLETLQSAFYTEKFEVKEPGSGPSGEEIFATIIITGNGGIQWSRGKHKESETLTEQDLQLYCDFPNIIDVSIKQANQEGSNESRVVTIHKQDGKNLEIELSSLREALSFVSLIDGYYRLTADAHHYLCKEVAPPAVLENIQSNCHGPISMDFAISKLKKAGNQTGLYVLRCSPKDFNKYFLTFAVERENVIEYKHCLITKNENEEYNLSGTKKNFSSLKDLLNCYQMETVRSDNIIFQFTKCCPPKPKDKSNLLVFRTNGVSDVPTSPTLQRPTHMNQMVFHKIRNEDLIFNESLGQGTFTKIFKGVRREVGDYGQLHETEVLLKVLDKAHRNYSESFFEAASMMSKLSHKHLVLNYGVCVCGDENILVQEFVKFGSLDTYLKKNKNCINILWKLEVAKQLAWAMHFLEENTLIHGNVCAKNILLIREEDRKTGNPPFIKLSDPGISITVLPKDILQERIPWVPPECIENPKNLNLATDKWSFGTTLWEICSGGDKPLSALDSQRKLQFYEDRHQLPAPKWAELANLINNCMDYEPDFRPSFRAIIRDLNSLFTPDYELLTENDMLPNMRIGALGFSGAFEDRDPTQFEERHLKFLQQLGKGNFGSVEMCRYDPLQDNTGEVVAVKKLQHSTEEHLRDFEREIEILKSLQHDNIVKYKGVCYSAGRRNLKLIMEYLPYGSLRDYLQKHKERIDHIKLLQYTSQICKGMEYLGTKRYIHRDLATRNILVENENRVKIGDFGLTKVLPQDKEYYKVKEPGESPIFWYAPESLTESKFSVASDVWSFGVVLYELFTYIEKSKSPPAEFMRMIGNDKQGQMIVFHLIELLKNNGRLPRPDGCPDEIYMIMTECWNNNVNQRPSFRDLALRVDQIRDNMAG
T4 sequence (P29597 whole entry): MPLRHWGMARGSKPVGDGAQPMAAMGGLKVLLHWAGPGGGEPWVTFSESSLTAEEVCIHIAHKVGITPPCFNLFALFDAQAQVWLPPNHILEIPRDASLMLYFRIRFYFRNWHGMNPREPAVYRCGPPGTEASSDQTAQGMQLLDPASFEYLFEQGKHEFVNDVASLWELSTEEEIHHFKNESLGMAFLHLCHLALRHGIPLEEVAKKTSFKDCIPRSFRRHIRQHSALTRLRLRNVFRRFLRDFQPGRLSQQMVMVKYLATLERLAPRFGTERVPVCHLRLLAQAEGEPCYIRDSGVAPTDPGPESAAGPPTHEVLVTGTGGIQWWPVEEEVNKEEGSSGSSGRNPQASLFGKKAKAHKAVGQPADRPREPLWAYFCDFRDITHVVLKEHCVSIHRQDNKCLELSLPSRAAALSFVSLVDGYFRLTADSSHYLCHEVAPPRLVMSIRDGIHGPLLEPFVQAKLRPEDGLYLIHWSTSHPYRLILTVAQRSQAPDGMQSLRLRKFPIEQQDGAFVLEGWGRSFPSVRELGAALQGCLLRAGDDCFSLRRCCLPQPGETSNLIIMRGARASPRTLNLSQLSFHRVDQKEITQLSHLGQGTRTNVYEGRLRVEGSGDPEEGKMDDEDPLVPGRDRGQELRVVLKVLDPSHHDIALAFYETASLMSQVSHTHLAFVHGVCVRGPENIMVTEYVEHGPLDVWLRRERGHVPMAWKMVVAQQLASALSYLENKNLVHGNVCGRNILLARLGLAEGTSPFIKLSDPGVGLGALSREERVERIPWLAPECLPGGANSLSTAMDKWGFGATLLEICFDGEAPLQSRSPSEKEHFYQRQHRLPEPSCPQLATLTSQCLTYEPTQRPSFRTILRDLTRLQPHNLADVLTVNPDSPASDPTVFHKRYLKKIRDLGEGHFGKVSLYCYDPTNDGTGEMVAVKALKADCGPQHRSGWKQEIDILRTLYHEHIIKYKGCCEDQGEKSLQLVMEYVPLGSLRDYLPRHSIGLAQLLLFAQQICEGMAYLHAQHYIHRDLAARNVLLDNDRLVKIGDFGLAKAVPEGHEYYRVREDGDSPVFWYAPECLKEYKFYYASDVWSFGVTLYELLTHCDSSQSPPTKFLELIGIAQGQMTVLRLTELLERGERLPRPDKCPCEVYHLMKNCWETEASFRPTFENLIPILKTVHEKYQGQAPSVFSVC
T1 sequence (P23458 whole entry): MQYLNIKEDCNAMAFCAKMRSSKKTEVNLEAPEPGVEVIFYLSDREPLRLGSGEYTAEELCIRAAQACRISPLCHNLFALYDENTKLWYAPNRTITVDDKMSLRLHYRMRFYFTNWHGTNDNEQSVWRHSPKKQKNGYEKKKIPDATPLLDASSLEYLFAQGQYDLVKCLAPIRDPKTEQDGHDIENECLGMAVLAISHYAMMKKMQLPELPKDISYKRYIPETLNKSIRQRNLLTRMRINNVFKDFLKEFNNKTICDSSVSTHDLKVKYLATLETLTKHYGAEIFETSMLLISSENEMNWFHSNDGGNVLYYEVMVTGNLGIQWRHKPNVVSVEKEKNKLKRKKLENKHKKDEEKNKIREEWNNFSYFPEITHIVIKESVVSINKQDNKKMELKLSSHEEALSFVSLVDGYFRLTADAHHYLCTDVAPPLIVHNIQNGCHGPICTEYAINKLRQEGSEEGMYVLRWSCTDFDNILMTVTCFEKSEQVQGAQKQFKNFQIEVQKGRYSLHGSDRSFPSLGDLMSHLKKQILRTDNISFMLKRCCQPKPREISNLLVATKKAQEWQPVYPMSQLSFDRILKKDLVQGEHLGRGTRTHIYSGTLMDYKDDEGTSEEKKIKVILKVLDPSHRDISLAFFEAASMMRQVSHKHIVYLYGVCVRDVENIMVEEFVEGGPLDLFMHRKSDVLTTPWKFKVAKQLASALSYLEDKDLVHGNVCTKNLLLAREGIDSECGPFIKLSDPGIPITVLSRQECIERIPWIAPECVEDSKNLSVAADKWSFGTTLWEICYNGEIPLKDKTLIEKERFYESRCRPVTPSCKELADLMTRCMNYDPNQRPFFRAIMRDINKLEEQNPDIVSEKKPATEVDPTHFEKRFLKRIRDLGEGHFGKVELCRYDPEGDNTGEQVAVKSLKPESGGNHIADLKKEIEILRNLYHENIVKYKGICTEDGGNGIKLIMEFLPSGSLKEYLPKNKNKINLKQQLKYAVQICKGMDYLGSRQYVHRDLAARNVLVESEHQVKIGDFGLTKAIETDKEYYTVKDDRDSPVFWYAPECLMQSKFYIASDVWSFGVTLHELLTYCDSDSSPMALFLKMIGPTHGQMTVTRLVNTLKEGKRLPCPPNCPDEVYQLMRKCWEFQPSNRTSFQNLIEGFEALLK

For the compound `c1cc(-c2cnn(-c3ccc(CN4CCOCC4)cn3)c2)c2nc[nH]c2n1` [Example 1085, 7-(1-(5-(morpholinomethyl)pyridin-2-yl)-1H-pyrazol-4-yl)-3H-imidazo[4,5-b]pyridine], the IC50 in assay [1] is greater than 1 µM; in assay [2], greater than 1 µM; in assay [3], greater than 1 µM; in assay [4] it was greater than 10 µM.

Turning to `CS(=O)(=O)CCC(c1ccc(-n2cc(-c3ccnc4[nH]c(=O)[nH]c34)cn2)nc1)C(F)(F)F` (stereo not shown) [Example 1147, 7-(1-(5-(1,1,1-trifluoro-4-(methylsulfonyl)butan-2-yl)pyridin-2-yl)-1H-pyrazol-4-yl)-1H-imidazo[4,5-b]pyridin-2(3H)-one], the IC50 in assay [1] was greater than 0.5 µM; in assay [2], greater than 1 µM; in assay [3], greater than 1 µM; in assay [4], greater than 1 µM.

For the compound `O=C(NCC(F)(F)F)n1cc(-c2cccc3[nH]c(=O)[nH]c23)cn1` [Example 1036, N-(2,2,2-trifluoroethyl)-4-(2,3-dihydro-2-oxo-1H-benzo[d]imidazol-4-yl)-1H-pyrazole-1-carboxamide], the IC50 in assay [1], in assay [2], in assay [3] and in assay [4] was greater than 10 µM in each case.

Turning to `CN(C)C(c1ccc(-n2cc(-c3ccnc4[nH]cnc34)cn2)nc1)C(F)(F)F` (stereo not shown) [Example 1121, 1-(6-(4-(3H-imidazo[4,5-b]pyridin-7-yl)-1H-pyrazol-1-yl)pyridin-3-yl)-2,2,2-trifluoro-N,N-dimethylethanamine], the IC50 was greater than 0.1 µM in assay [2], greater than 0.1 µM in assay [3] and greater than 1 µM in assay [4].

For `O=C(N1CCN(c2ccnc3[nH]c(=O)[nH]c23)CC1)N1CCS(=O)(=O)CC1` [Example 1018, 7-(4-(1,1-dioxidothiomorpholine-4-carbonyl)piperazin-1-yl)-1,3-dihydro-2H-imidazo[4,5-b]pyridin-2-one], the IC50 in assay [1], in assay [2], in assay [3] and in assay [4] was greater than 10 µM in each case.

For the compound `N#CC(c1ccc(-n2cc(-c3ccnc4[nH]cnc34)cn2)nc1)C1CC1` (stereo not shown) [Example 1110, 2-(6-(4-(3H-imidazo[4,5-b]pyridin-7-yl)-1H-pyrazol-1-yl)pyridin-3-yl)-2-cyclopropylacetonitrile], the IC50 in assay [1] was greater than 0.1 µM; in assay [2], greater than 0.5 µM; in assay [3], greater than 0.1 µM; in assay [4], greater than 1 µM.

On to `N#CC1CN(C(=O)CNC(=O)n2cc(-c3ccnc4[nH]c(=O)[nH]c34)cn2)C1` [Example 1059, N-(2-(3-cyanoazetidin-1-yl)-2-oxoethyl)-4-(2-oxo-2,3-dihydro-1H-imidazo[4,5-b]pyridin-7-yl)-1H-pyrazole-1-carboxamide], for which the IC50 in assay [1] is greater than 1 µM; in assay [2], greater than 1 µM; in assay [3], greater than 10 µM; in assay [4], greater than 10 µM.

As for `O=C(NCC(F)(F)F)n1ccc(-c2ccnc3[nH]c(=O)[nH]c23)c1` [Example 1028, N-(2,2,2-trifluoroethyl)-3-(2,3-dihydro-2-oxo-1H-imidazo[4,5-b]pyridin-7-yl)-1H-pyrrole-1-carboxamide], the IC50 in assay [1], in assay [2], in assay [3] and in assay [4] was greater than 1 µM each time.

In the case of `N#CCC(NC(=O)n1cc(-c2ccnc3[nH]c(=O)[nH]c23)cn1)C1CCOCC1` (stereo not shown) [Example 1062, N-(2-cyano-1-(tetrahydro-2H-pyran-4-yl)ethyl)-4-(2,3-dihydro-2-oxo-1H-imidazo[4,5-b]pyridin-7-yl)-1H-pyrazole-1-carboxamide], the IC50 in assay [1], in assay [2], in assay [3] and in assay [4] was less than 0.5 µM each time.

As to `CS(=O)(=O)CCC(c1ccc(-n2cc(-c3ccnc4[nH]c(=O)[nH]c34)cn2)nc1)C(F)(F)F` (stereo not shown) [Example 1189, 7-(1-(5-(1,1,1-trifluoro-4-(methylsulfonyl)butan-2-yl)pyridin-2-yl)-1H-pyrazol-4-yl)-1H-imidazo[4,5-b]pyridin-2(3H)-one], the IC50 was greater than 0.5 µM in assay [1], greater than 1 µM in assay [2], greater than 1 µM in assay [3] and greater than 1 µM in assay [4].

For the compound `OC(c1ccnc(-n2cc(-c3ccnc4[nH]cnc34)cn2)c1)C(F)(F)F` (stereo not shown) [Example 1172, 1-(2-(4-(3H-imidazo[4,5-b]pyridin-7-yl)-1H-pyrazol-1-yl)pyridin-4-yl)-2,2,2-trifluoroethanol], the figures for the IC50 in assay [3] and in assay [4] were less than 0.1 µM and greater than 1 µM, respectively.

In the case of `CC(C)(C#N)NC(=O)n1cc(-c2ccnc3[nH]c(=O)[nH]c23)cn1` [Example 1033, N-(2-cyanopropan-2-yl)-4-(2,3-dihydro-2-oxo-1H-imidazo[4,5-b]pyridin-7-yl)-1H-pyrazole-1-carboxamide], the IC50 in assay [3] and in assay [4] was greater than 1 µM throughout.

`O=C(NCC(F)(F)F)Nc1cnc(-c2ccnc3[nH]c(=O)[nH]c23)cn1` [Example 1006, 1-(5-(2-oxo-2,3-dihydro-1H-imidazo[4,5-b]pyridin-7-yl)pyrazin-2-yl)-3-(2,2,2-trifluoroethyl)urea]: the IC50 in assay [4] is greater than 1 µM.

Take `OC(c1ccc(-n2cc(-c3ccnc4[nH]cnc34)cn2)nc1)(C1CCCC1)C(F)(F)F` (stereo not shown) [Example 1132, 1-(6-(4-(3H-imidazo[4,5-b]pyridin-7-yl)-1H-pyrazol-1-yl)pyridin-3-yl)-1-cyclopentyl-2,2,2-trifluoroethanol]: the IC50 was greater than 0.5 µM in assay [2], greater than 0.1 µM in assay [3] and greater than 1 µM in assay [4].

Take `N#CCNC(=O)N1CCN(c2ccnc3[nH]c(=O)[nH]c23)CC1` [Example 1012, N-(cyanomethyl)-4-(2,3-dihydro-2-oxo-1H-imidazo[4,5-b]pyridin-7-yl)piperazine-1-carboxamide]: the IC50 in assay [3] is greater than 1 µM.

For `CC(NC(=O)N1CCN(c2ccnc3[nH]c(=O)[nH]c23)CC1)C(F)(F)F` (stereo not shown) [Example 1021, N-(1,1,1-trifluoropropan-2-yl)-4-(2,3-dihydro-2-oxo-1H-imidazo[4,5-b]pyridin-7-yl)piperazine-1-carboxamide], the IC50 in assay [2], in assay [3] and in assay [4] was greater than 1 µM each time.

Turning to `COc1cc(NC(=O)N2CCN(c3ccnc4[nH]c(=O)[nH]c34)CC2)ccn1` [Example 1019, 4-(2,3-dihydro-2-oxo-1H-imidazo[4,5-b]pyridin-7-yl)-N-(2-methoxypyridin-4-yl)piperazine-1-carboxamide], the IC50 in assay [2], in assay [3] and in assay [4] was greater than 1 µM each time.

For `FC(F)(F)C(c1ccc(-n2cc(-c3ccnc4[nH]cnc34)cn2)nc1)N1CCOCC1` (stereo not shown) [Example 1137, 7-(1-(5-(2,2,2-trifluoro-1-morpholinoethyl)pyridin-2-yl)-1H-pyrazol-4-yl)-3H-imidazo[4,5-b]pyridine], the IC50 in assay [2] was greater than 0.5 µM; in assay [3], greater than 0.5 µM; in assay [4] it was greater than 1 µM.

In the case of `CCC(C)(C#N)NC(=O)n1cc(-c2ccnc3[nH]c(=O)[nH]c23)cn1` (stereo not shown) [Example 1040, N-(2-cyanobutan-2-yl)-4-(2,3-dihydro-2-oxo-1H-imidazo[4,5-b]pyridin-7-yl)-1H-pyrazole-1-carboxamide], the IC50 in assay [4] is greater than 1 µM.

As for `O=C(Nc1ccnc(F)c1)N1CCN(c2ccnc3[nH]c(=O)[nH]c23)CC1` [Example 1015, N-(2-fluoropyridin-4-yl)-4-(2,3-dihydro-2-oxo-1H-imidazo[4,5-b]pyridin-7-yl)piperazine-1-carboxamide], the IC50 in assay [2], in assay [3] and in assay [4] was greater than 1 µM throughout.

The values above are taken from patent publication US12516056B2, “Compounds for inhibition of janus kinase 1” (MANKIND PHARMA LTD., priority 2019, dated 2026).
